Read-outs that look alike come from different tables or passages of the source.
How the values were obtained:
Type in all cases: cell-based, Saccharomyces cerevisiae W303
[1] = system: promoter of yeast gene YKL071w
Excerpt: (§1) The inventors of the present application understood that the induction of certain yeast genes by toxic substances is caused by the activation of the promoters of the genes by the toxic substances. Thus, the inventors prepared a vector that comprised a polynucleotide sequence comprising the promoter of the yeast gene, which sequence is operably linked to a polynucleotide encoding a marker protein; and transformed yeast cells with the vector. […] The working examples hereinafter illustrate the preparation of such vectors, transformation of yeast cells by use of said vectors, and the detection of toxic substances by use of the transformed cells.
(§2) Promoter assay is a method for determining variations of the level of intracellular genes without destroying cells on the basis of the level of expressed marker genes instead of the expressed mRNA. The gene selected to detect a chemical substance is expressed in the absence of chemical substances, and thus a marker protein also occurs in the absence of chemical substances. In the method according to the present invention, the behavior of yeast genes on the addition of test materials is determined on the basis of the level of expressed marker protein so that the presence or the absence, and the kind of toxic chemical substances are predicted. Thus, it is desired that the production of marker proteins is lower in the absence of chemical substances, and the production of marker proteins is higher in the presence of chemical substances.
(§3) Type YEp shuttle vector pYES2 (pYES2, Cat no: V825-20, Invirtogen Corporation, USA), which can be replicated both in E. coli. and yeast was used as vector (R. W. Old, S. B. Primrose Principles of Gene Manipulation 5th Ed., BAIFUKAN CO., LTD, pp138-165, pp.234-263, 2000). The portion of vector pQBI 63 (Cat no.54-0082, Wako Pure Chemical Industries, Ltd.) corresponding to a marker protein GFP was used as the polynucleotide encoding GFP (SEQ ID No: 6). First, the GFP polynucleotide was inserted into the multiple cloning sites of pYES2 to give a vector. Thereafter, the GAL1 promoter of pYES2 was replaced with the polynucleotide comprising the promoter sequence of the intended yeast gene YKL071w (SEQ ID No: 1) to give an intended plasmid vector. Suitable restriction enzymes were selected, and the insertion of the polynucleotide comprising GFP and the promoter sequence was conducted.
(§4) Next, the yeast Saccharomyces cerevisiae W303 was transformed with the resultant plasmid vector according to the following procedures: • 1) Incubating the yeast Saccharomyces cerevisiae W303 in 200 ml of SD medium under shaking until OD 660 reaches 0.5; • 2) Suspending the collected cells in 5 ml of TE-buffer; • 3) Adding 250 μL of 2.5M lithium acetate; • 4) Dispending each 300 μl, adding 10 μl of above plasmid vector thereto, then incubating the suspensions at 30° C. for 30 minutes; • 5) Adding 700 μl of 50% PEG4000, and incubating the mixture under shaking at 30° C. for 60 minutes; • 6) Giving heat shock (42° C., 5 minutes), and then immediately cooling the mixture; • 7) Washing the mixture twice with 1M sorbitol; and • 8) Seeding it on agar plates made of minimum essential medium.
(§5) The cells of SC-YKL071W-pQBI as prepared in Example 2 were contacted to one of the following compounds. The yeast cells SC-YKL071W-pQBI were incubated at 25° C. in SD medium (Yeast nitrogen base without amino acids (Difco 0919-15)+glucose+amino acids (adenine, histidine, tryptophan)). One of toxic chemical substances as shown below was added to the cells at logarithmic growth phase, and then the cells were further incubated for two hours.

[2] = system: promoter of yeast gene YLR303w; settings: for expression of GFP: SC-YCR303W-pQBI cells (so in the source), summary of Table 14
Excerpt: as §1, §2
as §3, with “YLR303w” for “YKL071w”, “5)” for “1)”
as §4
as §5, with “of SC-YCR303W-pQBI” for “of SC-YKL071W-pQBI”, “Example 6” for “Example 2”, “cells SC-YCR303W-pQBI” for “cells SC-YKL071W-pQBI”

[3] = system: promoter of yeast gene YOR382w
Excerpt: as §1, §2
as §3, with “YOR382w” for “YKL071w”, “3)” for “1)”
as §4
as §5, with “of SC-YOR382W-pQBI” for “of SC-YKL071W-pQBI”, “Example 4” for “Example 2”, “cells SC-YOR382W-pQBI” for “cells SC-YKL071W-pQBI”

[4] = SC-YKL071W-pQBI cells, 25° C., two hours, each substance at the concentration given
[5] = cells SC-YCR303W-pQBI (so in the source), 2 hours incubation with the substance at the concentration printed in its row (column Concentrations), GFP fluorescence vs control without chemical
[6] = cells SC-YOR382W-pQBI, 2 hours incubation with the substance at the concentration printed in its row (column Concentrations), GFP fluorescence vs control without chemical
[7] = SC-YOR382W-pQBI cells, summary of Table 12

Question: Which results are given for CCCCC(CC)COC(=O)c1ccccc1C(=O)OCC(CC)CCCC (centres unmarked)?
Answer: Fluorescens [1, 4]: − (the number of the cells having a higher fluorescence than the control was under 1%); Fluorescence [2, 5]: − (the number of the cells having a higher fluorescence than the control was under 1%); Fluorescence [3, 6]: − (the number of the cells having a higher fluorescence than the control was under 1%)

Question: O=[N+]([O-])c1cc[n+]([O-])c2ccccc12 [(5), 4-nitroquinolin-N-oxide] was tested. Which “expression of GFP” value [3, 7] did it give?
Answer: induced the expression of GFP

Question: How did the “expression of GFP” value [3] turn out when Oc1cc(Cl)c(Cl)cc1Cl [(6), 2,4,5-trichlorophenol] was run?
Answer: induced the expression of GFP

Question: How did the “expression of GFP” value ([1]; SC-YKL071W-pQBI cells, summary of Table 10) turn out when CN(C)C(=S)SSC(=S)N(C)C [(10), Tetramethylthiuram disulfide] was run?
Answer: induced the expression of GFP

Question: How did the “expression of GFP” value [3, 7] turn out when C[S+](C)[O-] [(15), dimethylsulfoxide] was run?
Answer: induced the expression of GFP

Question: How did the Fluorescens [1, 4] turn out when CCN(CC)C(=O)SCc1ccc(Cl)cc1 [S-4-Chlorobenzyl-N,N-diethylthiocarbamate] was run?
Answer: − (the number of the cells having a higher fluorescence than the control was under 1%)

Question: What about the Fluorescence [2, 5] of the same compound?
Answer: − (the number of the cells having a higher fluorescence than the control was under 1%)

Question: What about the Fluorescence [3, 6] of the same compound?
Answer: − (the number of the cells having a higher fluorescence than the control was under 1%)

Question: With CC(=O)O.Cc1nc(N)cc2[nH]c3ccccc3c12 [Trp-P-2 (acetate)] as the compound, how does the Fluorescens [1] read?
Answer: − (key: −: the number of the cells having a higher fluorescence than the control was under 1%; +: between 1% and 2%; ++: 2% or more)

Question: And the Fluorescence [2]?
Answer: − (key: −: the number of the cells having a higher fluorescence than the control was under 1%; +: between 1% and 2%; ++: 2% or more)

Question: And the Fluorescence [3]?
Answer: ++ (key: −: the number of the cells having a higher fluorescence than the control was under 1%; +: between 1% and 2%; ++: 2% or more)

Question: And the “expression of GFP” value [3]?
Answer: induced the expression of GFP

Question: What does the source list for O=S(=O)([O-])[O-].[Cu+2] [copper sulfate (II)]?
Answer: Fluorescens [1]: − (key: −: the number of the cells having a higher fluorescence than the control was under 1%; +: between 1% and 2%; ++: 2% or more); Fluorescence [2]: − (key: −: the number of the cells having a higher fluorescence than the control was under 1%; +: between 1% and 2%; ++: 2% or more); Fluorescence [3]: − (key: −: the number of the cells having a higher fluorescence than the control was under 1%; +: between 1% and 2%; ++: 2% or more)

Question: How did the Fluorescens [1, 4] turn out when CCOC(=O)CC(SP(=S)(OC)OC)C(=O)OCC (centres unmarked) [malathon] was run?
Answer: − (the number of the cells having a higher fluorescence than the control was under 1%)

Question: What about the Fluorescence [2, 5] of the same compound?
Answer: − (the number of the cells having a higher fluorescence than the control was under 1%)

Question: What about the “expression of GFP” value [3, 7] of the same compound?
Answer: induced the expression of GFP

Question: And the Fluorescence [3, 6]?
Answer: ++ (2% or more)

Question: Which Fluorescens [1, 4] does the source give for [CH3][Hg][Cl] [methylmercury chloride] here?
Answer: − (the number of the cells having a higher fluorescence than the control was under 1%)

Question: And the Fluorescence [2, 5]?
Answer: − (the number of the cells having a higher fluorescence than the control was under 1%)

Question: And the Fluorescence [3, 6]?
Answer: − (the number of the cells having a higher fluorescence than the control was under 1%)

Question: Which results are given for [Cl][Ni][Cl] [nickel (II) chloride]?
Answer: Fluorescens [1]: − (key: −: the number of the cells having a higher fluorescence than the control was under 1%; +: between 1% and 2%; ++: 2% or more); Fluorescence [2]: − (key: −: the number of the cells having a higher fluorescence than the control was under 1%; +: between 1% and 2%; ++: 2% or more); Fluorescence [3]: ++ (key: −: the number of the cells having a higher fluorescence than the control was under 1%; +: between 1% and 2%; ++: 2% or more); expression of GFP [3]: induced the expression of GFP

Question: Which results are given for [K+].[K+].[O]=[Cr](=[O])([O-])[O][Cr](=[O])(=[O])[O-] [potassium bichromate]?
Answer: Fluorescens [1, 4]: − (the number of the cells having a higher fluorescence than the control was under 1%); Fluorescence [2, 5]: − (the number of the cells having a higher fluorescence than the control was under 1%); expression of GFP [3, 7]: induced the expression of GFP; Fluorescence [3, 6]: ++ (2% or more)

Question: Which results are given for [Cl][Sn]([c]1ccccc1)([c]1ccccc1)[c]1ccccc1 [triphenyltin chloride]?
Answer: Fluorescens [1, 4]: − (the number of the cells having a higher fluorescence than the control was under 1%); Fluorescence [2, 5]: − (the number of the cells having a higher fluorescence than the control was under 1%); Fluorescence [3, 6]: − (the number of the cells having a higher fluorescence than the control was under 1%)

Question: How did the Fluorescens [1, 4] turn out when CdCl2 [(2)] was run?
Answer: − (the number of the cells having a higher fluorescence than the control was under 1%)

Question: And the “expression of GFP” value [2]?
Answer: induced the expression of GFP

Question: And the Fluorescence [2, 5]?
Answer: ++ (2% or more)

Question: What about the Fluorescence [3, 6] of the same compound?
Answer: − (the number of the cells having a higher fluorescence than the control was under 1%)

Question: What does the source list for HgCl2 [(3)]?
Answer: Fluorescens [1, 4]: − (the number of the cells having a higher fluorescence than the control was under 1%); expression of GFP [2]: induced the expression of GFP; Fluorescence [2, 5]: ++ (2% or more); Fluorescence [3, 6]: − (the number of the cells having a higher fluorescence than the control was under 1%)

Question: Which results are given for Na2As [(1)]?
Answer: Fluorescens [1, 4]: − (the number of the cells having a higher fluorescence than the control was under 1%); expression of GFP [2]: induced the expression of GFP; Fluorescence [2, 5]: ++ (2% or more); Fluorescence [3, 6]: − (the number of the cells having a higher fluorescence than the control was under 1%)

— patent US20050112573A1, “Method of detecting toxic substance” (priority 2001, published 2005)
